{"source": "patent US20250353848A1", "about": "“HETEROCYCLIC PAD4 INHIBITORS” (Celgene Corporation, priority 2022, published 2025)", "data": [{"molecular_target": "hPAD4 enzyme (Homo sapiens, UniProt Q9UM07)", "sequence (Q9UM07 whole entry)": "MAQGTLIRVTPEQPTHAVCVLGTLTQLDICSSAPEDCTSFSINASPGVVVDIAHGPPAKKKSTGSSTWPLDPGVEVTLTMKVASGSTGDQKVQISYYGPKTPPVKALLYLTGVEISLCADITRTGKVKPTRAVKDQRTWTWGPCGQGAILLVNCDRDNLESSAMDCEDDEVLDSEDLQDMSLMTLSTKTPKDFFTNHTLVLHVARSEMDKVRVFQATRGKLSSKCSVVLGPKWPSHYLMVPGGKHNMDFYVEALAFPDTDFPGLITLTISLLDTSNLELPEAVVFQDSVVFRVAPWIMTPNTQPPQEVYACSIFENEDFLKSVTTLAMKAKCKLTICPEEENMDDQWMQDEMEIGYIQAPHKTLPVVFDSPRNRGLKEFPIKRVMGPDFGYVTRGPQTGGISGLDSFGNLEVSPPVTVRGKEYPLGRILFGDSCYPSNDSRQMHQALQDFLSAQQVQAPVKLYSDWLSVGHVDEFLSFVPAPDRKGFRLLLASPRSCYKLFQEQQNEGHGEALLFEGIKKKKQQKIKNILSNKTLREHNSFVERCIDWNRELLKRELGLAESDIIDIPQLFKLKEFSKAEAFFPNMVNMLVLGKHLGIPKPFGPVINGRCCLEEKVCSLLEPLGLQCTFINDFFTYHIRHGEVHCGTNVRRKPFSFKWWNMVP", "assay": "RFMS Assay 1 (rapid-fire mass spectrum PAD4 inhibition assay, BAEE substrate)", "assay_type": "biochemical", "conditions": "5 nM hPAD4 enzyme, 250 μM BAEE, 30 mins compound and enzyme preincubation at 37° C., 90 min enzyme/substrate reaction", "description": "Compounds were solubilized in 100% DMSO to achieve a 10 mM compound concentration. Compound stock solutions were stored at RT. A series of dilutions were prepared in DMSO and mixed 8 times with 20 μL mixing volume. Final top concentration of compound in the assay is 50 μM. Final assay conditions were as follows: • Reaction volume: 26 μl • Assay buffer: 25 mM hepes, pH 7.5, 5 mM NaCl, 1 mM DTT, 0.2 mg/ml BSA, 0.01% CHAPS, 50 μM Calcium, and 5 μM TPEN • Final concentrations: 5 nM hPAD4 enzyme, 250 μM BAEE, and 0.5% DMSO • Total incubation time: 30 mins compound and enzyme preincubation at 37° C., 90 min enzyme/substrate reaction, 30 min reaction with phenyl glyoxal at 37° C. • Stop solution: 40 μl 5% TCA in ACN\n0.13 μL of compound solution was added to 13 μL of 10 nM PAD4 in assay buffer. After 30 min 13 μl of 500 μM of BAEE was added in 25 mM hepes, pH 7.5, 5 mM NaCl, 1 mM DTT, 0.2 mg/ml BSA, 0.01% CHAPS, 50 µM Calcium, […] was added and the reaction incubated for 90 min at 37° C. The enzymatic reaction was quenched by addition of 15 μl of 6.1N TCA, 100% Final Concentration is 20%, 35 μl of 8.5 mM phenyl glyoxal (final concentration 4 mM) is then added and the reaction is incubated for 30 min at 37° C.\nAfter 30 minutes the plates are spun down to remove all precipitate. The enzyme reaction was quenched with an equal volume of methanol containing internal standard (modified citrulline). Samples were loaded onto the Rapid Fire RF300 system (Agilent) wherein they were first sipped for 1000 ms and then directly loaded to a C18 separations cartridge using a mixture of acetonitrile containing 0.01% formic acid for 3000 ms desalting. The flow rate of the mobile phase was 1.5 ml/min. Once the samples were eluted from the cartridge, a mobile phase of acetonitrile containing 0.01% formic acid was used to move the samples into the mass spectrometer for 4000 ms at a flow rate of 1.25 ml/min/Sciex AP15500 triple quadrupole mass spectrometer (Applied Biosystems) equipped with ESI was used to analyze the peptidyl citrulline and internal standard ions.\nMRM transition of product and internal standard were monitored at m/z 424.5 to 350.4 and m/z 293 to 247 respectively. The dwell time for each transition was set at 200 ms, and the ESI voltage was used at 5500 with a source temperature of 400° C. Extracted ion peaks for each transition were integrated using the Rapid Fire Integrator software. Peak area of analyte was normalized with internal standard.).", "units": {"IC50": "nM"}, "values": [{"smiles": "CO[C@H](C)C(=O)N1CCC(c2cccc3cc(-c4nc5cc6c(nc5n4C)CCN(C[C@H](N)CF)C6=O)n(CC4CC4)c23)CC1", "note": "[Example 31, 7-((S)-2-amino-3-fluoropropyl)-2-(1-(cyclopropylmethyl)-7-(1-((R)-2-methoxypropanoyl)piperidin-4-yl)-1H-indol-2-yl)-3-methyl-3,5,6,7-tetrahydro-8H-imidazo[4,5-b][1,6]naphthyridin-8-one]", "IC50": "11 to 100"}, {"smiles": "C[C@H](O)C(=O)N1CCC(c2cccc3cc(-c4nc5cc6c(nc5n4C)CCN(C[C@H](N)CF)C6=O)n(CC4CC4)c23)CC1", "note": "[Example 32, 7-((S)-2-amino-3-fluoropropyl)-2-(1-(cyclopropylmethyl)-7-(1-((S)-2-hydroxypropanoyl)piperidin-4-yl)-1H-indol-2-yl)-3-methyl-3,5,6,7-tetrahydro-8H-imidazo[4,5-b][1,6]naphthyridin-8-one]", "IC50": "101 to 500"}, {"smiles": "Cn1c(-c2cc3cccc(CCCn4cnc(F)c4)c3n2CC2CC2)nc2cc3c(nc21)CCN(C[C@H](N)CF)C3=O", "note": "[Example 99, (S)-7-(2-amino-3-fluoropropyl)-2-(1-(cyclopropylmethyl)-7-(3-(4-fluoro-1H-imidazol-1-yl)propyl)-1H-indol-2-yl)-3-methyl-3,5,6,7-tetrahydro-8H-imidazo[4,5-b][1,6]naphthyridin-8-one]", "IC50": "11 to 100"}, {"smiles": "C[C@H](Cn1cncc1F)Oc1cccc2cc(-c3nc4cc5c(nc4n3C)CCN(C[C@H](N)CF)C5=O)n(CC3CC3)c12", "note": "[Example 69, 7-((S)-2-amino-3-fluoropropyl)-2-(1-(cyclopropylmethyl)-7-(((R)-1-(5-fluoro-1H-imidazol-1-yl)propan-2-yl)oxy)-1H-indol-2-yl)-3-methyl-3,5,6,7-tetrahydro-8H-imidazo[4,5-b][1,6]naphthyridin-8-one]", "IC50": "11 to 100"}, {"smiles": "C[C@H](COc1cccc2cc(-c3nc4cc5c(nc4n3C)CCN(C[C@@H](C)N)C5=O)n(CC3CC3)c12)n1cnc(F)c1", "note": "[Example 81, 7-((R)-2-aminopropyl)-2-(1-(cyclopropylmethyl)-7-((R)-2-(4-fluoro-1H-imidazol-1-yl)propoxy)-1H-indol-2-yl)-3-methyl-3,5,6,7-tetrahydro-8H-imidazo[4,5-b][1,6]naphthyridin-8-one]", "IC50": "≤ 10"}, {"smiles": "Cn1c(-c2cc3cccc(OCC(F)n4ccnc4)c3n2CC2CC2)nc2cc3c(nc21)CCN(C[C@H](N)CF)C3=O", "note": "(single isomer, unassigned) [Example 79b]", "IC50": "11 to 100"}, {"smiles": "C[C@@H](COc1cccc2cc(-c3nc4cc5c(nc4n3C)CCN(C[C@H](N)CF)C5=O)n(CC3CC3)c12)n1cncc1C#N", "note": "[Example 88, 1-((S)-1-((2-(7-((S)-2-amino-3-fluoropropyl)-3-methyl-8-oxo-5,6,7,8-tetrahydro-3H-imidazo[4,5-b][1,6]naphthyridin-2-yl)-1-(cyclopropylmethyl)-1H-indol-7-yl)oxy)propan-2-yl)-1H-imidazole-5-carbonitrile]", "IC50": "101 to 500"}, {"smiles": "Cn1c(-c2cc3cccc(OCC(O)c4cnco4)c3n2CC2CC2)nc2cc3c(nc21)CCN(C[C@H](N)CF)C3=O", "note": "(single isomer, unassigned) [Example 61b]", "IC50": "101 to 500"}, {"smiles": "COc1cccc2cc(-c3nc4cc5c(nc4n3C)CCN(C[C@H](N)CF)C5=O)n(CCOC(F)(F)F)c12", "note": "[Example 5, (S)-7-(2-amino-3-fluoropropyl)-2-(7-methoxy-1-(2-(trifluoromethoxy)ethyl)-1H-indol-2-yl)-3-methyl-3,5,6,7-tetrahydro-8H-imidazo[4,5-b][1,6]naphthyridin-8-one]", "IC50": "101 to 500"}, {"smiles": "COc1cccc2cc(-c3nc4cc5c(nc4n3C)CCN(C[C@H](N)CF)C5=O)n(CCOC(F)F)c12", "note": "[Example 6, (S)-7-(2-amino-3-fluoropropyl)-2-(1-(2-(difluoromethoxy)ethyl)-7-methoxy-1H-indol-2-yl)-3-methyl-3,5,6,7-tetrahydro-8H-imidazo[4,5-b][1,6]naphthyridin-8-one]", "IC50": "101 to 500"}, {"smiles": "COCCn1c(-c2nc3cc4c(nc3n2C)CCN(C[C@H](N)CF)C4=O)cc2cccc(OC(F)Cn3ccnc3)c21", "note": "(single isomer, unassigned) [Example 77a]", "IC50": "11 to 100"}, {"smiles": "Cn1c(-c2cc3cccc(/C=C/Cn4cnc(F)c4)c3n2CC2CC2)nc2cc3c(nc21)CCN(C[C@H](N)CF)C3=O", "note": "[Example 97, (S,E)-7-(2-amino-3-fluoropropyl)-2-(1-(cyclopropylmethyl)-7-(3-(4-fluoro-1H-imidazol-1-yl)prop-1-en-1-yl)-1H-indol-2-yl)-3-methyl-3,5,6,7-tetrahydro-8H-imidazo[4,5-b][1,6]naphthyridin-8-one]", "IC50": "11 to 100"}, {"smiles": "Cn1cc(CCOc2cccc3cc(-c4nc5cc6c(nc5n4C)CCN(C[C@H](N)CF)C6=O)n(CC4CC4)c23)cn1", "note": "[Example 51, (S)-7-(2-amino-3-fluoropropyl)-2-(1-(cyclopropylmethyl)-7-(2-(1-methyl-1H-pyrazol-4-yl)ethoxy)-1H-indol-2-yl)-3-methyl-3,5,6,7-tetrahydro-8H-imidazo[4,5-b][1,6]naphthyridin-8-one]", "IC50": "≤ 10"}, {"smiles": "COc1cccc2cc(-c3nc4cc5c(nc4n3C)CCN(C[C@H](N)CF)C5=O)n(CC3CC3(F)F)c12", "note": "(stereo partly drawn) [Example 4, 7-((S)-2-amino-3-fluoropropyl)-2-(1-((2,2-difluorocyclopropyl)methyl)-7-methoxy-1H-indol-2-yl)-3-methyl-3,5,6,7-tetrahydro-8H-imidazo[4,5-b][1,6]naphthyridin-8-one]", "IC50": "101 to 500"}, {"smiles": "CC(COc1cccc2cc(-c3nc4cc5c(nc4n3C)CCN(C[C@H](N)CF)C5=O)n(CC3CC3)c12)c1cccnc1", "note": "(single isomer, unassigned) [Example 45a]", "IC50": "≤ 10"}, {"smiles": "COc1cccc2cc(-c3nc4cc5c(nc4n3C)CCN(C[C@H](N)CF)C5=O)n(CC(F)F)c12", "note": "[Example 3, (S)-7-(2-amino-3-fluoropropyl)-2-(1-(2,2-difluoroethyl)-7-methoxy-1H-indol-2-yl)-3-methyl-3,5,6,7-tetrahydro-8H-imidazo[4,5-b][1,6]naphthyridin-8-one]", "IC50": "101 to 500"}, {"smiles": "CC(C(F)Oc1cccc2cc(-c3nc4cc5c(nc4n3C)CCN(C[C@H](N)CF)C5=O)n(CC3CC3)c12)n1ccnc1", "note": "(single isomer, unassigned) [Example 78d]", "IC50": "11 to 100"}, {"smiles": "C[C@H](Cn1cnc(F)c1)Oc1cccc2cc(-c3nc4cc5c(nc4n3C)CCN(C[C@H](N)CF)C5=O)n(CC3CC3)c12", "note": "[Example 67, 7-((S)-2-amino-3-fluoropropyl)-2-(1-(cyclopropylmethyl)-7-(((R)-1-(4-fluoro-1H-imidazol-1-yl)propan-2-yl)oxy)-1H-indol-2-yl)-3-methyl-3,5,6,7-tetrahydro-8H-imidazo[4,5-b][1,6]naphthyridin-8-one]", "IC50": "≤ 10"}, {"smiles": "CC(C(F)Oc1cccc2cc(-c3nc4cc5c(nc4n3C)CCN(C[C@H](N)CF)C5=O)n(CC3CC3)c12)n1ccnc1", "note": "(single isomer, unassigned) [Example 78c]", "IC50": "11 to 100"}, {"smiles": "COCCn1c(-c2nc3cc4c(nc3n2C)CCN(C[C@H](N)CF)C4=O)cc2cccc(OC(F)Cn3ccnc3)c21", "note": "(single isomer, unassigned) [Example 77b]", "IC50": "11 to 100"}, {"smiles": "Cn1c(-c2cc3cccc(OCCc4ccccn4)c3n2CC2CC2)nc2cc3c(nc21)CCN(C[C@H](N)CF)C3=O", "note": "[Example 58, (S)-7-(2-amino-3-fluoropropyl)-2-(1-(cyclopropylmethyl)-7-(2-(pyridin-2-yl)ethoxy)-1H-indol-2-yl)-3-methyl-3,5,6,7-tetrahydro-8H-imidazo[4,5-b][1,6]naphthyridin-8-one]", "IC50": "101 to 500"}]}]}
